This assay concerns NCAPG2 pT1010. Description: NCAPG2 pT1010-specific antibody reactivity after phosphorylase inhibitor treatment of nocodazole-treated breast cancer cells. It is filed as cell-based, human. To be noted: MBAMB 231 treated with nocodazole, then inhibitor for 2 hours; FIG. 1B, 1C. Here is the method: In addition, to confirm a phosphorylase inducing phosphorylation, after treating a breast cancer cell line MBAMB 231 with nocodazole, which is a mitosis-inducing reagent, and then with inhibitors of phosphorylases regulating mitosis for 2 hours, the reactivity of the NCAPG2 pT1010-specific antibody was confirmed.

As to `O=C1NC(=NCc2cccs2)S/C1=C\c1ccc2ncccc2c1` [RO3306], the “NCAPG2 pT1010 phosphospecific bands after kinase inhibition” value was “phosphospecific bands disappear”.

Turning to `c1nc2nc(Nc3ccc(N4CCOCC4)cc3)nc(NC3CCCCC3)c2[nH]1` [reversine], the “NCAPG2 pT1010 phosphospecific bands after kinase inhibition” value is “phosphospecific bands disappear”.

(Values after patent publication US20240279319A1, “ANTIBODY FOR IDENTIFYING PHOSPHORYLATION-SPECIFIC REACTIONS OF THREONINE AT POSITION 1010 OF NCAPG2, AND USE THEREOF” (NATIONAL CANCER CENTER, priority 2021, published 2024).)
